According to patent US8309558B2, “Compounds for the treatment of hepatitis C” (Bristol-Myers Squibb Company, priority 2008, dated 2012):

Experiments:
HCV replicon cells = assay: HCV replicon FRET / luciferase assay (96-well plates); assay type: cell-based; details: Hepatitis C virus, Table 1b; HCV replicon; read-out: EC50
Outline: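 HCV replicon cells (with or without Renilla luciferase reporter) were plated with titrated compounds at 37 °C. After Alamar blue toxicity reading, cells were lysed in reagent containing 20 μM EDANS/DABCYL NS3 protease FRET peptide and 150 mM NaCl, read kinetically at 340/490 nm, or assayed by Dual-Glo luciferase.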

[1] = biological target: T1, HCV NS5B RdRp genotype 1b (Hepatitis C virus genotype 1b, UniProt Q9WMX2); assay: Standard HCV NS5B RdRp enzyme assay; assay type: biochemical; details: Table 1b; HCV NS5B RdRp genotype 1b; read-out: IC50
T1 construct: The protein was expressed with an 18 amino acid C-terminal truncation to enhance the solubility; made in house; host or cells: E. coli BL21(DE3), pET21a vector
Outline: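 Radiometric SPA measuring 3H-UMP incorporation on polyA/biotin-oligo-dT12 (6 nM/180 nM), 0.29 μM total UTP. Enzyme: NS5B 1b lacking last 18 residues, 28 nM final, 30° C for 60 min in 20 mM Hepes pH 7.5, 2.5 mM MgCl2, 2% DMSO. IC50 from seven-point curves.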

T1 sequence (Q9WMX2 2420-2992): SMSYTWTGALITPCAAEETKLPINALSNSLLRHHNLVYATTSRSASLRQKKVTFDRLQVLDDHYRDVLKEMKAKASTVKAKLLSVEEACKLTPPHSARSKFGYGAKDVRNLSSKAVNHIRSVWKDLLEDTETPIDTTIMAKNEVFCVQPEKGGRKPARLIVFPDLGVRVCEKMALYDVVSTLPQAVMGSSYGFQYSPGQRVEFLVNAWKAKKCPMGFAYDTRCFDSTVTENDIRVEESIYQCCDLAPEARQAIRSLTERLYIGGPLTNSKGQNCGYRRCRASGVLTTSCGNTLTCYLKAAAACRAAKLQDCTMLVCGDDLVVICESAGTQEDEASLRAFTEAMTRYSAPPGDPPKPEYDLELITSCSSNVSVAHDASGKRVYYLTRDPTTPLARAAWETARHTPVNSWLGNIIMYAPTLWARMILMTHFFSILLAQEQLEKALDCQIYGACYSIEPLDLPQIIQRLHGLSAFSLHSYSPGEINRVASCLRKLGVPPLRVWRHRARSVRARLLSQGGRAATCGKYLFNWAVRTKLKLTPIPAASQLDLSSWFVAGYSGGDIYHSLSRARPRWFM

| SMILES | EC50 (HCV replicon cells) | IC50 [1] |
| --- | --- | --- |
| CNC(=O)c1c(-c2ccc(F)cc2)oc2ccc(-c3ccc(-c4cccc(CO)c4)c(C(=O)NCC(C)C)c3)cc12 | < 250 nM | < 250 nM |
| CNC(=O)c1c(-c2ccc(F)cc2)oc2ccc(-c3ccc(-c4cnn(C)c4)c(C(=O)NCC(C)C)c3)cc12 | < 250 nM | < 250 nM |
| CNC(=O)c1c(-c2ccc(F)cc2)oc2ccc(-c3ccc(-c4cncc5ccccc45)c(C(=O)NCC(C)C)c3)cc12 | < 250 nM | 250 to 1000 nM |
| CNC(=O)c1c(-c2ccc(F)cc2)oc2ccc(-c3cc(C(=O)NC(C)(C)C)ccc3C)cc12 | < 250 nM | < 250 nM |
| CNC(=O)c1c(-c2ccc(F)cc2)oc2cc([N+](=O)[O-])c(-c3cc(C(=O)NC4(c5ccccc5)CC4)ccc3OC)cc12 | 250 to 1000 nM | < 250 nM |
| CNC(=O)c1c(-c2ccc(F)cc2)oc2ccc(-c3cc(C(=O)NC4(C#N)CC4)ccc3C)cc12 | < 250 nM | < 250 nM |
| CNC(=O)c1c(-c2ccc(F)cc2)oc2cc([N+](=O)[O-])c(-c3ccc(OC)c(C(=O)NC4(c5ccccc5)CC4)c3)cc12 | < 250 nM | < 250 nM |
| CNC(=O)c1c(-c2ccc(F)cc2)oc2ccc(-c3cc(N)ccc3C)cc12 | 1000 to 10000 nM | 1000 to 10000 nM |
| CNC(=O)c1c(-c2ccc(F)cc2)oc2cc(N)c(-c3cc(C(=O)NC4(c5ccccc5)CC4)ccc3OC)cc12 | < 250 nM | < 250 nM |
| CNC(=O)c1c(-c2ccc(F)cc2)oc2ccc(-c3cc(NC(=O)C4(c5ccccc5)CC4)ccc3C)cc12 | 250 to 1000 nM | 1000 to 10000 nM |
| CNC(=O)c1c(-c2ccc(F)cc2)oc2ccc(-c3cc(C(=O)NC4(C(=O)OC)CC4)ccc3C)cc12 | < 250 nM | < 250 nM |
| CNC(=O)c1c(-c2ccc(F)cc2)oc2ccc(-c3cc(C(=O)NC4(c5nnc(C)[nH]5)CC4)ccc3C)cc12 | < 250 nM | < 250 nM |
| CNC(=O)c1c(-c2ccc(F)cc2)oc2cc(N)c(-c3cc(C(=O)NC4(c5ccccc5)CC4)ccc3C)cc12 | < 250 nM | < 250 nM |
| CNC(=O)c1c(-c2ccc(F)cc2)oc2ccc(-c3cccc(C(=O)NC(C)(C)c4nc(C)no4)c3)cc12 | < 250 nM | < 250 nM |
| CNC(=O)c1c(-c2ccc(F)cc2)oc2ccc(-c3cc(C(=O)NC4(C(=O)O)CC4)ccc3C)cc12 | 1000 to 10000 nM | < 250 nM |
| CNC(=O)c1c(-c2ccc(F)cc2)oc2ccc(-c3cc(C(=O)NC4(CO)CC4)ccc3C)cc12 | 1000 to 10000 nM | 1000 to 10000 nM |
| CNC(=O)c1c(-c2ccc(F)cc2)oc2ccc(-c3cc(C(=O)NC(C)(C)CN4CCOCC4)ccc3C)cc12 | < 250 nM | < 250 nM |
| CNC(=O)c1c(-c2ccc(F)cc2)oc2ccc(-c3cc(C(=O)NCC(C)C)ccc3OC(F)F)cc12 | < 250 nM | < 250 nM |
| CNC(=O)c1c(-c2ccc(F)cc2)oc2ccc(-c3cc(C(=O)NC(C)(C)C4CC4)ccc3C)cc12 | < 250 nM | < 250 nM |
| CNC(=O)c1c(-c2ccc(F)cc2)oc2cc(NS(C)(=O)=O)c(-c3cc(C(=O)NC4(c5ccccc5)CC4)ccc3C)cc12 | < 250 nM | < 250 nM |
| CNC(=O)c1c(-c2ccc(F)cc2)oc2ccc(-c3cc(C(=O)NC4(c5nnn[nH]5)CC4)ccc3C)cc12 | 1000 to 10000 nM | < 250 nM |
| CNC(=O)c1c(-c2ccc(F)cc2)oc2ccc(-c3cc(C(=O)NC4(c5ccccc5)CC4)ccc3O)cc12 | < 250 nM | < 250 nM |
| CNC(=O)c1c(-c2ccc(F)cc2)oc2ccc(-c3ccc(O)c(C(=O)NCC(C)C)c3)cc12 | > 10000 nM | 1000 to 10000 nM |
| CNC(=O)c1c(-c2ccc(F)cc2)oc2cc(N(CCO)S(C)(=O)=O)c(-c3cccc(C(=O)NC(C)(C)c4nc(C)no4)c3)cc12 | < 250 nM | < 250 nM |
| CNC(=O)c1c(-c2ccc(F)cc2)oc2cc(N(CCO)S(C)(=O)=O)c(-c3cc(C(=O)NC4(c5ccccc5)CC4)ccc3C)cc12 | < 250 nM | < 250 nM |
| CNC(=O)c1c(-c2ccc(F)cc2)oc2ccc(-c3cc(C(=O)NCC(C)C)ccc3OCC3CCNC3)cc12 (stereo not drawn) | < 250 nM | < 250 nM |

| SMILES | EC50 (HCV replicon cells) | IC50 [1] |
| --- | --- | --- |
| CNC(=O)c1c(-c2ccc(F)cc2)oc2ccc(-c3cc(C(=O)NCC(C)C)ccc3OCC3CCCNC3)cc12 (stereo not drawn) | < 250 nM | < 250 nM |
| CNC(=O)c1c(-c2ccc(F)cc2)oc2ccc(-c3cc(C(=O)NC4(c5ccccn5)CC4)c(OC)cc3Cl)cc12 | < 250 nM | < 250 nM |
| CNC(=O)c1c(-c2ccc(F)cc2)oc2ccc(-c3cc(C(=O)NCC(C)C)ccc3OCCC(N)=O)cc12 | > 10000 nM | > 10000 nM |
| CNC(=O)c1c(-c2ccc(F)cc2)oc2ccc(-c3cc(C(=O)NCC(C)C)ccc3OCCCN)cc12 | < 250 nM | < 250 nM |
| CNC(=O)c1c(-c2ccc(F)cc2)oc2ccc(-c3cc(C(=O)NC4(c5ccc(F)cc5)CC4)ccc3C)cc12 | < 250 nM | < 250 nM |
| CNC(=O)c1c(-c2ccc(F)cc2)oc2ccc(-c3cc(C(=O)NCC(C)C)ccc3OC3CCC(N)C3)cc12 (stereo not drawn) | < 250 nM | < 250 nM |
| CNC(=O)c1ccc(-c2ccc(-c3ccc4oc(-c5ccc(F)cc5)c(C(=O)NC)c4c3)cc2C(=O)NCC(C)C)cn1 | > 10000 nM | > 10000 nM |
| CNC(=O)c1c(-c2ccc(F)cc2)oc2ccc(-c3cc(C(=O)NCC(C)C)ccc3OCCNC(N)=O)cc12 | < 250 nM | < 250 nM |
| CNC(=O)c1c(-c2ccc(F)cc2)oc2ccc(-c3ccc(-c4ccc(C(N)=O)cc4)c(C(=O)NCC(C)C)c3)cc12 | > 10000 nM | < 250 nM |
| CNC(=O)c1c(-c2ccc(F)cc2)oc2ccc(-c3ccc(-c4cncc(C#N)c4)c(C(=O)NCC(C)C)c3)cc12 | 250 to 1000 nM | < 250 nM |
| CNC(=O)c1c(-c2ccc(F)cc2)oc2ccc(-c3cc(C(=O)NC4(c5nnc(C6CC6)[nH]5)CC4)ccc3C)cc12 | < 250 nM | < 250 nM |
| CNC(=O)c1c(-c2ccccc2)oc2ccc(-c3cc(C(=O)NC4(c5nnc(-c6ccccc6)[nH]5)CC4)ccc3C)cc12 | < 250 nM | < 250 nM |
| CNC(=O)c1c(-c2ccc(F)cc2)oc2ccc(-c3cc(C(=O)NC4(c5ccccn5)CC4)c(OC)cc3C)cc12 | < 250 nM | < 250 nM |
| CNC(=O)c1c(-c2ccc(F)cc2)oc2ccc(-c3cc(C(=O)NC4(c5ccccn5)CC4)c(F)cc3Cl)cc12 | < 250 nM | < 250 nM |
| CNC(=O)c1c(-c2ccc(F)cc2)oc2ccc(-c3cncc(C(=O)NC(C)(C)C)c3)cc12 | < 250 nM | < 250 nM |
| CNC(=O)c1c(-c2ccc(F)cc2)oc2ccc(-c3cc(OC(C)C)cc(C(=O)NCC(C)C)c3)cc12 | > 10000 nM | 1000 to 10000 nM |
| CNC(=O)c1c(-c2ccc(F)cc2)oc2ccc(-c3cc(C(=O)NCC(C)C)ccc3OC(F)(F)F)cc12 | > 10000 nM | 250 to 1000 nM |
| CNC(=O)c1c(-c2ccc(F)cc2)oc2ccc(-c3cc(C(=O)NC4(c5ccccn5)CC4)c(F)cc3O)cc12 | 250 to 1000 nM | < 250 nM |
| CNC(=O)c1c(-c2ccccc2)oc2ccc(-c3cc(C(=O)NC4(c5nc(-c6ccccn6)no5)CC4)ccc3C)cc12 | < 250 nM | < 250 nM |
| CNC(=O)c1c(-c2ccc(F)cc2)oc2ccc(-c3cc(C(=O)NC4(c5ccccc5)CC4)ccc3OC(F)(F)F)cc12 | < 250 nM | 250 to 1000 nM |
| CNC(=O)c1c(-c2ccc(F)cc2)oc2ccc(-c3cc(C(=O)NC4(c5ccccn5)CC4)ccc3OC(F)(F)F)cc12 | < 250 nM | 250 to 1000 nM |
| CNC(=O)c1c(-c2ccc(F)cc2)oc2ccc(-c3cc(C(=O)NC4(c5nc(C)no5)CC4)c(OC)cc3Cl)cc12 | < 250 nM | < 250 nM |
| CNC(=O)c1c(-c2ccc(F)cc2)oc2ccc(-c3cc(C(=O)NC4(c5ccccn5)CC4)c(F)cc3C)cc12 | < 250 nM | < 250 nM |
| CNC(=O)c1c(-c2ccc(F)cc2)oc2ccc(-c3cc(C(=O)NC4(c5nc(C6CC6)no5)CC4)ccc3C)cc12 | < 250 nM | < 250 nM |
| CNC(=O)c1c(-c2ccc(F)cc2)oc2ccc(-c3ccc(-c4cccc(OC)c4F)c(C(=O)NCC(C)C)c3)cc12 | 250 to 1000 nM | > 10000 nM |
